Key:
human MCHR1 = molecular target: T1, human MCHR1 (Homo sapiens, UniProt Q99705); assay: Kinetic real-time cell-binding study (LigandTracer) on CHO-K1-hMCHR1 cells; type: cell-based; conditions: for observed association rate constant (kobs): CHO-K1-hMCHR1 cells, ambient temperature, radiotracer 0.05–1000 nM, mean ± SEM; for accumulation on CHO-K1-hMCHR1 cells: real-time cell binding, result in words
T1 construct: host or cells: CHO-K1
Procedure: Kinetic real-time cell-binding studies were performed on adherent Chinese hamster ovary (CHO-K1) cells (negative control) and CHO-K1 cells stably expressing the human MCHR1 or MCHR2 (PerkinElmer®; Waltham, MA, USA) with [^11C]SNAP-7941 and [^18F]FE@SNAP as previously reported. The cells were cultured in Ham’s F-12 medium (Gibco®, Life Technologies) with additives (1 % penicillin-streptomycin-glutamine (PSG), 10 % fetal bovine serum (FBS), and 300-μg/m Geneticin (G-418)) and incubated in a humidified 5 % CO2 atmosphere at 37 °C. For the preparation of the binding experiment, approximately 10^6 cells were seeded as a monolayer on the bottom of a tilted cell culture dish (100 mm × 20 mm, CELLSTAR®, Greiner Bio-One) and incubated with 2-ml medium for 24 h to avoid a spreading of the cells over the whole Petri dish. In the next step, the medium was discarded and the Petri dish was placed in a horizontal position with 10-ml medium for additional 24 h. Afterwards, the binding experiment was performed at ambient temperature with LigandTracer® Yellow (Ridgeview Instruments AB, Uppsala, Sweden) using 3-ml fresh medium (Ham’s F-12, serum-free). Unspecific radiotracer uptake was determined with native CHO-K1 cells. The experiments were initiated with baseline measurements for 10–15 min followed by radioligand incubation of [^11C]SNAP-7941 and [^18F]FE@SNAP. Binding to the seeded cells was ensured by adding different concentrations of the radiotracer (0.05–1000 nM). Association-time curves were monitored in real-time until the binding equilibrium was achieved. The observed rate constant of the association reaction (kobs) was determined using non-linear regression curve fitting algorithms implemented in GraphPad Prism 6.0 (GraphPad Software, Inc., San Diego, CA, USA), as previously reported. Cell survival was continuously examined using the perimeter trace (signal vs. dish position) of the LigandTracer® 1.0.1 software (Ridgeview Instruments AB, Uppsala, Sweden).

MCHR1 = molecular target: T2, MCHR1 (Rattus norvegicus, UniProt P97639); assay: Ex vivo biodistribution, vehicle vs displacement with (±)-SNAP-7941; type: in vivo; conditions: 15 mg/kg (±)-SNAP-7941
T2 construct: from tissue; host or cells: living Sprague-Dawley rats (PET) and their organs after sacrifice
Description: After the imaging studies, the animals were sacrificed by decapitation; blood and tissues were removed and collected in tubes, weighed, and subjected to radioactivity measurements in a Gamma Counter (2480 WIZARD^2, PerkinElmer, Waltham, MA, USA). Values were normalized to the applied dose, the organ, and body weight and expressed as the standardized uptake value (SUV [g/ml]).

T2 sequence (P97639 whole entry): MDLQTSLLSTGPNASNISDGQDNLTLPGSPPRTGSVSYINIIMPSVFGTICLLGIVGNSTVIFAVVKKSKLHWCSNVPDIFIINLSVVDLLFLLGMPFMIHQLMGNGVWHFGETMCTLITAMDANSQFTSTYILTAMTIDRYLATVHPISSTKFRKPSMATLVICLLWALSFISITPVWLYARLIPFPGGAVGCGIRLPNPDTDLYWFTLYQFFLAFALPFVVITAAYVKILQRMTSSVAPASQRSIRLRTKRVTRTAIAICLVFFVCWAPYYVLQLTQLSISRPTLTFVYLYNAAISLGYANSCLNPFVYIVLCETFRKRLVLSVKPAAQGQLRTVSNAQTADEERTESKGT
T1 sequence (Q99705 whole entry): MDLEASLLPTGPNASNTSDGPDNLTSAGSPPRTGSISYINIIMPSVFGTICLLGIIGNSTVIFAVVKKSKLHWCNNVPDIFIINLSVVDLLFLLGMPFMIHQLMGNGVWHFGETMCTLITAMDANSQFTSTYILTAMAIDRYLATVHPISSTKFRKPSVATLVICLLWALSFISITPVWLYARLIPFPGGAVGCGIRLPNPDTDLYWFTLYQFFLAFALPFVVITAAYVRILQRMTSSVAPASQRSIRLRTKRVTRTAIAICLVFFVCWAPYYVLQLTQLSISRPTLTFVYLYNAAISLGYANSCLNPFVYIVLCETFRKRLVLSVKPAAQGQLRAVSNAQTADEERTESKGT

With COCC1=C(C(=O)O[11CH3])C(c2ccc(F)c(F)c2)N(C(=O)NCCCN2CCC(c3cccc(NC(C)=O)c3)CC2)C(=O)N1 (stereo not drawn) [[^11C]SNAP-7941] the “observed association rate constant (kobs)” value (human MCHR1) was 0.0629 ± 0.0020 min⁻¹, the “accumulation on CHO-K1-hMCHR1 cells” value (human MCHR1) was “high accumulation” and the “difference in colon uptake between vehicle and displacement groups” value (MCHR1) was “Statistically significant differences”. For the same compound, the “difference in eye uptake between vehicle and displacement groups” value (MCHR1) was “Statistically significant differences”, the “difference in pancreas uptake between vehicle and displacement groups” value (MCHR1) was “Statistically significant differences” and the “overall biodistribution: uptake in target regions after displacement” value (MCHR1) was “decreased uptake”.
For COCC1=C(C(=O)OCC[18F])C(c2ccc(F)c(F)c2)N(C(=O)NCCCN2CCC(c3cccc(NC(C)=O)c3)CC2)C(=O)N1 (stereo not drawn) [[^18F]FE@SNAP], the “observed association rate constant (kobs)” value (human MCHR1) was 0.0859 ± 0.0028 min⁻¹, the “accumulation on CHO-K1-hMCHR1 cells” value (human MCHR1) was “high accumulation” and the “difference in colon uptake between vehicle and displacement groups” value (MCHR1) was “no statistically significant difference”. The “difference in eye uptake between vehicle and displacement groups” value (MCHR1) was “significant differences”, the “difference in pancreas uptake between vehicle and displacement groups” value (MCHR1) was “significant differences” and the “overall biodistribution: uptake in target regions after displacement” value (MCHR1) was “decreased uptake”.

— PMC6449294, “SNAPshots of the MCHR1: a Comparison Between the PET-Tracers [^18F]FE@SNAP and [^11C]SNAP-7941” (Molecular Imaging and Biology, 2018)
